In article PMC5431875, “In situ click chemistry generation of cyclooxygenase-2 inhibitors” (Nature Communications, 2017):

Experiments:
COX-2 in HCA-7 cells = target: T1, COX-2 in HCA-7 cells (Homo sapiens, UniProt P35354); experiment: Cellular COX-2 inhibitory activity (PGE2 ELISA) in HCA-7 cells; assay type: cell-based; settings: mean of three determinations, read-out: Cell COX-2 IC50
T1 construct: endogenous in cells; host or cells: HCA-7
T1 sequence (P35354 18-604): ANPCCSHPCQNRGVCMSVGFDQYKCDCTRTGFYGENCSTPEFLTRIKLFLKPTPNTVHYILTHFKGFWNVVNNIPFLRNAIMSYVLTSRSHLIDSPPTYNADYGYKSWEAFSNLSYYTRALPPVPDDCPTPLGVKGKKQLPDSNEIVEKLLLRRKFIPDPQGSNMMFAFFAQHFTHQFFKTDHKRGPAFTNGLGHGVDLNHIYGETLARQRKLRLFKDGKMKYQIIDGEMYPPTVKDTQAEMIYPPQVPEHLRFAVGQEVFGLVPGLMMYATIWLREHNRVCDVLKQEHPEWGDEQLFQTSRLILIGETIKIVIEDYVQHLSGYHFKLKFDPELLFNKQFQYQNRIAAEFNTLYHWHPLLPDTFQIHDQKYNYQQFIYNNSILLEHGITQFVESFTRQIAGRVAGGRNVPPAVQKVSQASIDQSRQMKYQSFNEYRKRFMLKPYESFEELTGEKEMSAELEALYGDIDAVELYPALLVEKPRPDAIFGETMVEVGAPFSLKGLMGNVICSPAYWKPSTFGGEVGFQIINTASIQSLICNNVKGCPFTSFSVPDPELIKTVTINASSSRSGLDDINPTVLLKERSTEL
Experimental: Based on the in vitro COX-2 inhibitory data, seventeen compounds (Table 2) were selected and further evaluated for their cellular COX-2 inhibitory activity in COX-2 expressing colorectal cancer cell line HCA-7. […]
HCA-7 cells (colorectal cancer cell line, COX-2 expression is confirmed with immunoblotting). The HCA-7 cells were cultured in T75 flasks using DMEM/F12 (1:1) medium supplemented with 10% (v/v) fetal bovine […]
were washed three times for 5 min with 1 ml PBS. Cells were negatively tested for mycoplasma contamination either by the vendor or in house. […]
vehicle (solvent) at concentration range of 10−9 M to 10−3 M. After 30 min incubation the reaction was stopped on ice and supernatants were taken and COX-2 mediated production of PGE2 was immediately determined […]
concentration is quantified by following manufacturer assay procedure. All experiments were done three times and ±s.e.m. were calculated.
The PRISM5 software was used to calculate IC50 values.

pure human COX-2 protein = target: T2, pure human COX-2 protein (Homo sapiens, UniProt P35354); experiment: Isothermal titration calorimetry; assay type: binding; settings: ITC
T2 sequence (P35354 18-604): T1 sequence (P35354 18-604)
Experimental: The thermodynamics of the precursor 5-azido-pyrazole (14) binding with pure human COX-2 protein studied with a high sensitivity ITC instrument (VP-ITC, MicroCal). All titrations were performed by following VP-ITC general procedure described in manual. Protein (20 µM) and ligand (200 µM) solution were prepared in PBS buffer, pH 7.4. Prior to each ITC run, all solutions were filtered using membrane filters (pore size 0.45 μm) and thoroughly stirred and degassed using Thermovac accessory for 20 min to remove any air bubbles at 25 °C. In a typical experiment, aliquots (6 µl) of ligand solution (prepared at 10 times the COX-2 protein concentration) were injected with a computer-controlled stirrer-syringe into a reaction cell containing COX-2 protein. Titrations were carried out with a stirring speed of 400 rpm and 240 s intervals between injections. All experiments were conducted at 25 °C. Control experiments, including titration of the ligand into buffer alone or COX-2 protein into buffer alone, were carried to determine the heat due to dilution and subtracting during the original experiment. Calorimetric data analysis was performed with ORIGIN software provided by MicroCal. All results, including the binding constant (K a), stoichiometry of binding (N), and thermodynamics of binding (ΔH and TΔS) were determined by fitting the experimental binding isotherms.

Stability in human serum = assay type: in vitro ADME; settings: 37 °C, up to 30 h
Experimental: Stock solutions of compounds 5, 14, 18 and 21 (10 mM) were prepared in DMSO for molecular biology. A Solution of each compound (10 mM) was added to freshly thaw human serum (from human male AB plasma, USA origin, sterile-filtered, Sigma– Aldrich) at 37 °C; the final concentration of the compound was 100 µM. The resulting solution was incubated at 37 °C and at various time intervals (0 to 30 h) 200 µL reaction mixture samples was taken and added to 200 µL of acetonitrile containing 0.1% trifluoroacetic acid in order to deproteinize the proteins. Into each sample mixture, 10 μL of an internal standard solution (2 mM solution in methanol) was added. Sample mixture was sonicated, vortexed and then centrifuged for 15 min. at 2150 × g. The clear supernatant was transferred into the fresh tube for LCMS analysis, with a similar method described for the in situ click LC-MS studies. […]

Stability in rat serum = assay type: in vitro ADME; settings: 37 °C, up to 30 h
recombinant human COX-2 = target: T3, recombinant human COX-2 (Homo sapiens, UniProt P35354); experiment: COX inhibitor assay (Cayman 700100), COX-2
T3 sequence (P35354 18-604): T1 sequence (P35354 18-604)
Experimental: (§1) Each compound was assayed in concentration range of 10^−9 M to 10^−3 M, in triplicate. PRISM5 software was used to calculate IC50 values.

ovine COX-1 = target: T4, ovine COX-1 (Ovis aries, UniProt P05979); experiment: COX inhibitor assay (Cayman 700100), COX-1
T4 sequence (P05979 25-600): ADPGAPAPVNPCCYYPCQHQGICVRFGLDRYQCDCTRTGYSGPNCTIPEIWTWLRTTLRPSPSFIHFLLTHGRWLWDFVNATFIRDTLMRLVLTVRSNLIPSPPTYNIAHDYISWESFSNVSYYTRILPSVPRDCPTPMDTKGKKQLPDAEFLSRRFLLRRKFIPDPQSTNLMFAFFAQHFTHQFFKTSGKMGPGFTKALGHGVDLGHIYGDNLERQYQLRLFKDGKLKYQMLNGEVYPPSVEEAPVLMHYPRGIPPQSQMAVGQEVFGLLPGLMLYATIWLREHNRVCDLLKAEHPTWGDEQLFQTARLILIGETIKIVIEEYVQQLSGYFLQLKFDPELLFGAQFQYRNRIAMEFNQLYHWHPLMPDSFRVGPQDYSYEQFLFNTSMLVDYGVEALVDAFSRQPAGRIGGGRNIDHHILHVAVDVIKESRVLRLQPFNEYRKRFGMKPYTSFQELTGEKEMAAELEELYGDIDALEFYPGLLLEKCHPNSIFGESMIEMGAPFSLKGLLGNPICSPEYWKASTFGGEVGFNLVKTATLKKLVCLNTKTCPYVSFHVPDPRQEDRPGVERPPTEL
Experimental: as §1

IC50 (COX-2 in HCA-7 cells): 10 µM
Enthalpy change, ΔH (pure human COX-2 protein; 298.15 K): -8.248 kcal/mol
Entropy change, TΔS (pure human COX-2 protein; 298.15 K): 0.404 kcal/mol
Free energy change, ΔG (pure human COX-2 protein; 298.15 K): -8.652 kcal/mol
Binding stoichiometry, N (pure human COX-2 protein; PBS pH 7.4, 25 °C): 1.02 ± 0.0259
Stability in human serum (Stability in human serum): no significant degradation
Stability in rat serum (Stability in rat serum): no significant degradation
melting point: 131 to 133 °C
IC50 (recombinant human COX-2): 4.4 µM
COX-2 SI (selectivity index) (recombinant human COX-2; (COX-1 IC50)/(COX-2 IC50)): >22.7
IC50 (ovine COX-1): > 100 µM
SMILES: Cc1cc(N=[N+]=[N-])n(-c2ccc(S(C)(=O)=O)cc2)n1 [Compound 14, 5-azido-1-(4-methanesulfonyl-phenyl)-3-methyl-1H-pyrazole]
